Results taken from patent US8981112B2, “Inhibitors of β-secretase” (Boehringer Ingelheim International GmbH, priority 2012, dated 2015).

What was measured:
[1] = target: hERG (Homo sapiens (Human), UniProt Q12809); assay: hERG-Channel Assay (Assay 3), whole-cell patch clamp; format: cell-based; conditions: human, HEK293 cells stably transfected with hERG, pH 7.4; 10 μM, HEK293 cells transfected with hERG
Source text: hERG-Channel Assay (Assay 3)
HEK (human embryonic kidney) 293 cells were stably transfected with hERG cDNA.
Cells were superfused with a bath solution containing (mM): NaCl (137), KCl (4.0), MgCl2 (1.0), CaCl2 (1.8), Glucose (10), HEPES (10), pH 7.4 with NaOH. Patch pipettes were made from borosilicate glass tubing using a horizontal puller and filled with pipette solution containing (mM): K-aspartate (130), MgCl2 (5.0), EGTA (5.0), K2ATP (4.0), HEPES (10.0), pH 7.2 with KOH. Resistance of the microelectrodes was in the range between 2 and 5 MΩ.
Membrane currents were recorded using an EPC-10 patch clamp amplifier and PatchMaster software. hERG-mediated membrane currents were recorded at 35° C., using the whole-cell configuration of the patch-clamp technique. Transfected HEK293 cells were clamped at a holding potential of −60 mV and hERG-mediated inactivating tail currents were elicited using a pulse pattern with fixed amplitudes (activation/inactivation: 40 mV for 2000 ms; recovery: −120 mV for 2 ms; ramp to 40 mV in 2 ms; inactivating tail current: 40 mV for 50 ms) repeated at 15 s intervals. During each inter-pulse interval 4 pulses scaled down by a factor of 0.2 were recorded for a P/n leak subtraction procedure. Rs compensation was employed up to a level that safely allowed recording devoid of ringing.
The different concentrations of the test compound were applied sequentially on each of the different cells investigated. A steady state level of baseline current was measured for at least 6 sweeps prior to the application of the first test compound concentration.
The test compound was dissolved in DMSO to yield a master stock solution which was diluted further in DMSO to stock solutions needed for the lower concentrations. Final dilutions in extracellular buffer were prepared freshly from these stocks by a 1:1000 dilution step each before starting the experiments.
Peak current amplitudes were measured 3 ms after the ramp to +40 mV. For baseline and each concentration the peak currents of the three last sweeps before application of the next concentration were averaged. Residual currents (I/I0) were calculated for each cell as the fraction of actual average peak current and average baseline peak current. Results are presented as percent (%) inhibition (1−I/I0)*100% at 10 μM.

[2] = tested on: brain amyloid peptides Aβ1-x; assay: Rat Brain Aβ Lowering Assay (Assay 5); format: in vivo; conditions: 3 hrs after dosing
Description: Rat Brain Aβ Lowering Assay (Assay 5)
The animals were sacrificed 3 hrs after dosing, and brains were excised, dissected into cerebellum and left and right cerebra and flash-frozen in liquid nitrogen.
The cerebrum was homogenized (5 volumes per weight) in 20 mM Tris-HCL, pH 8.5, 0.2% Triton-X100 supplemented with protease inhibitors (complete, Roche Applied Science) at 4° C. using a glass Dounce homogenizer. The homogenate was centrifuged at 120,000×g for 60 min at 4° C., and the supernatant was collected and analyzed for Ab1-x using immunoassay with chemiluminescent detection (Meso-Scale Discovery, Rockville, Md. (MSD)).
Streptavidin 96-well plates (MSD) were pre-blocked with 5% Blocker A solution (MSD) for 1 hr at rt on an orbital shaker and washed 4 times with phosphate buffered saline (PBS). The wells were pre-coated with 20 ng/well of biotinylated antibody SIG-39155 (Clone M3.2, specific for amino acids 10-15 of the rodent Aβ) for 1 hr at rt and washed 4 times with PBS. For Aβ1-x analysis, 25 μl of either the cleared brain lysates or Aβ1-40 standards (8-500 pg/ml, with 2× increment) were incubated for 1 hr at rt with constant shaking. The wells were washed 4 times with PBS, and 25 μl of the detection antibody (Sulfo-TAG labeled anti-Aβ40 antibody supplied by MSD) was added and incubated for 1 hr at rt. After 4 washes with PBS, 150 μl of the chemiluminescence detection reagent (Read Buffer T, MSD) was added, and the plate was read on an MSD Sector Imager 6000 instrument. The calibration curve was fit into a non-linear four-parameter regression model, and the Aβ1-x concentrations were calculated for each well containing the cleared brain lysates. The percent of Aβ lowering was calculated based on the difference with the average Aβ concentration obtained for the brains from the animals treated with vehicle alone.

[3] = tested on: production of Abeta1-x peptides in H4 neuroglioma cell line stably expressing human APP; assay: H4-APPwt Cell-Based Assay (Assay 2), Abeta1-x production; conditions: H4 neuroglioma cells expressing human APP, Abeta1-x; read-out: H4-APPwt cell IC50 nM (assay 2)
Description: H4-APPwt Cell-Based Assay (Assay 2)
Cellular potency of the compounds of the invention was assessed in an assay monitoring production of Abeta1-x peptides in the H4 neuroglioma cell line (ATCC, Cat. #HTB-148) stably expressing human APP, using an immunoassay such as AlphaLISA (PerkinElmer, Cat.# AL288). Tested compounds were dissolved in DMSO and pre-diluted in the culture medium (DMEM containing 10% FBS and 1% penicillin/streptomycin) to achieve twice the final concentration of the compounds in the assay. Equal volumes of the 2× solutions of the tested compounds and cell suspension were added to a 96-well culture plate, so that each well contained ˜10,000 cells in a final volume of 200 μl. Final concentration of DMSO in the assay was 0.2%. The plates were incubated for 5 hrs at 37° C., 5% CO2 to allow cells to attach to the bottom of the wells in the presence of the tested compounds. Then the media was removed and replaced with fresh media containing tested compounds at the same final concentration. The plates were incubated for 18 hrs at 37° C., 5% CO2. Concentrations of Ab1-x were determined using AlphaLISA immunoassay (PerkinElmer, Cat.# AL288) following manufacturer's protocol. Concentrations of Abeta1-x in the wells containing either DMSO or 10 μM beta-secretase inhibitor (BACE inhibitor IV, EMD Bioscience, Cat. #565788) were used as uninhibited and background controls, correspondingly, for calculating percent inhibition values for each well with the tested compounds.

[4] = In Vitro Phospholipidosis Assay (Assay 4), Nile red staining; format: cell-based; conditions: human, first effect concentration, U937 cells, read-out: Phospholipidosis FEC IC50 μM (assay 4)
Description: In Vitro Phospholipidosis Assay (Assay 4)
The phospholipidogenic potential of test compounds was assayed using the human hematopoetic U937 cell line. The test principle was to analyze the phospholipid content by staining the cells with the fluorescent dye Nile red.
U937 cells were seeded into cell culture plates at 0.5×10^6 cells/mL in RPMI medium containing 10% FBS, 1% DMSO, and 0.005% gentamicin. The cells were then cultivated with or without different concentrations of test compounds for 48 h under standard culture conditions.
For harvesting the cells were centrifuged at 130×g for 4 min and washed once with PBS. Then 2×0.5 mL cell suspension was prepared for non-fixed cell measurement (0.5 mL for propidium iodide (PI) viability measurement and 0.5 mL for Nile red measurement).
The remaining cells were fixed with 3.7% formaldehyde for 30 min. After a further centrifugation step cells were resuspended with 1.3 mL Nile red working solution (1 μg/mL) and incubated for 5 min at rt. The cell suspension was then washed twice with 3 mL PBS and centrifuged with 130×g for 4 min. The supernatant was discarded and the cells were resuspended with 0.5 mL PBS and kept for flow cytometry measurement. For Nile red staining of the 0.5 mL non-fixed cell samples, 50 μL of a ready to use Nile red solution (10 μg/mL) were added per sample. Samples were kept on ice for 5 min. Thereafter, they were washed once with 4 mL PBS (4° C., 250×g for 8 min) and finally resuspended in 400 μL PBS and kept for flow cytometry measurement.
For the viability measurement, 12.5 μL of the ready to use PI solution (10 μg/mL) were added to the 0.5 mL non-fixed cell suspension. After 15 min of incubation on ice, the samples were measured by flow cytometry using a Coulter Epics XL/MCL flow cytometer.
The viability of the cells of each sample was determined by flow cytometry measurement of the PI content at channel 2 (568-590 nm). Cut-off gates for the fluorescence-dependent differentiation between live and dead cells were defined based on the analysis of cell culture medium control samples.
Only samples with a cell viability of >=90% relative to control samples were analyzed for phospholipidosis. For that, each Nile red sample (non-fixed and fixed samples) was measured by flow cytometry at channel 1 (504-541 nm) and channel 4 (660-680 nm).
For each channel, relative Nile red fluorescence intensity of a test sample was calculated compared to control samples and expressed as percentage of control fluorescence intensity. The assessment of the phospholipidogenic potential and the first effect concentration (FEC) of a test compound was done manually based on the fluorescence intensities at both wavelengths for the fixed cells as well as for the non-fixed cells.

Sequence of hERG (Q12809 whole entry): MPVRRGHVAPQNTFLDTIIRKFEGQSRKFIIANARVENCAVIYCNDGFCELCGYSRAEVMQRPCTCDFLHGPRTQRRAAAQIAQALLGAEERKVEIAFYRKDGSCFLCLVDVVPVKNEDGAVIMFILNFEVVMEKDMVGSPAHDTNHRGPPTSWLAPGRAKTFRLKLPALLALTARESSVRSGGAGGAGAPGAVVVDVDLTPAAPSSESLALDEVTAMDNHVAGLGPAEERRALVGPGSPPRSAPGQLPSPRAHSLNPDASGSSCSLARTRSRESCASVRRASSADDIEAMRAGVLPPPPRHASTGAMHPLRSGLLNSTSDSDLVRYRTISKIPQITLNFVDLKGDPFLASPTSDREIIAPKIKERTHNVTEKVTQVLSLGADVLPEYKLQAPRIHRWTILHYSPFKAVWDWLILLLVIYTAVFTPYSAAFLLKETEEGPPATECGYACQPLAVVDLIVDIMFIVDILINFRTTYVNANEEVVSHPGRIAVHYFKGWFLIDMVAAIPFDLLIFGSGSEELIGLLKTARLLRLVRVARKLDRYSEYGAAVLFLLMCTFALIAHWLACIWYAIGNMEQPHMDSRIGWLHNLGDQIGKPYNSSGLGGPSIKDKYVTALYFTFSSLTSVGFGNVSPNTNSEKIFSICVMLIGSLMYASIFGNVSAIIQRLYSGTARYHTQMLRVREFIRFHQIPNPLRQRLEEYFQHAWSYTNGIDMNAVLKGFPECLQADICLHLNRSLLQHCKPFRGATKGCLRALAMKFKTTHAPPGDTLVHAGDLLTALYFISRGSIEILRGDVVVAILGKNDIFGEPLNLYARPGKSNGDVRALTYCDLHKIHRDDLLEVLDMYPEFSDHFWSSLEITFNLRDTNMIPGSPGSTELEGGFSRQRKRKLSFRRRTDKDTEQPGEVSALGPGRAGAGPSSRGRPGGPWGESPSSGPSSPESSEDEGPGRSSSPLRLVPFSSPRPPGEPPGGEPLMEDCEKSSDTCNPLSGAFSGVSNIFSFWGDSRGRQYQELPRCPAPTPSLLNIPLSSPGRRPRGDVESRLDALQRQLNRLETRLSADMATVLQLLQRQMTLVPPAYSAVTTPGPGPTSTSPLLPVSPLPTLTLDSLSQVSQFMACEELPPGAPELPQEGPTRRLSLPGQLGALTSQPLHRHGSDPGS

IC50 [3] [nM] | Compound | inhibition at 10 µM [1] [%] | % Aβ Reduction ([2]; single oral dose 25 mg/kg) [%] | IC50 at 48 h [4] [µM] | % Aβ Reduction ([2]; single oral dose 12.5 mg/kg) [%] | % Aβ Reduction ([2]; single oral dose 50 mg/kg) [%]
0.3 | CO[C@H]1[C@H](C)C[C@@]2(Cc3ccc(F)cc3[C@]23N=C(N)N(CC2(C)OCCO2)C3=O)C[C@@H]1C [Example 29] | 7 | 78 | 200 |  | 
0.5 | CC[C@@H]1C[C@]2(CC[C@H]1OC)Cc1ccc(C#N)cc1[C@]21N=C(N)N(C[C@H]2COCCO2)C1=O [Example 28] | 9 |  | 400 | 30 | 
1.24 | CO[C@H]1CC[C@@]2(Cc3ccc(C#N)cc3[C@]23N=C(N)N(Cc2ncccn2)C3=O)C[C@@H]1C [Example 6] | 35 |  | 200 |  | 60
0.28 | CO[C@H]1[C@H](C)C[C@@]2(Cc3ccc(C#N)cc3[C@]23N=C(N)N(CC2(C)OCCO2)C3=O)C[C@@H]1C [Example 20] | 8 | 73 | > 400 |  | 
